Measured values published in US4870002A, “Method of prevention of oxidative injury to cells” (priority 1985, dated 1989).
Read-outs that look alike come from different tables or passages of the source.

Assays:
[1] = system: Con A-Lu-BSA labeled pig RBCs; assay: Chemiluminescence of Con A-Lu-BSA labeled pig RBCs with exogenous hydrogen peroxide; assay type: cell-based
Experimental: The luminol-bovine serum albumin (Lu-BSA) complex was made by mixing 2 mg luminol (5-amino-2, 3-dihydrophthalazine-1,4-dione), 0.2 ml of 2 mg BSA/ml PBS (pH 6.9), and 1.6 ml of PBS, pH 6.9. The preparation was then passed through a 0.22 μm nitrocellulose filter to remove insoluble luminol. Next, 0.2 ml of 2 mg Con A/ml of PBS, pH 6.9, was added to the filtrate. After gentle mixing, 10 μl of 25% glutaraldehyde were added. The solution was incubated in the refrigerator for 1 hour. To stop the conjugation, 100 mg of glycine was added to the solution. The solution was then pressed through a 48 ml column of dextran gel filtration beads equilibrated with PBS, pH 6.9. The gel exclusion size was greater than 5000 for globular molecules. The fractions were collected and tested for luminescent labeling activity.
One ml of supernatant of each 10 ml aliquot of 1:20 diluted RBCs was replaced with 1 ml of Con A-Lu-BSA solution as previously described. The preparation was incubated for 15 min. at 37° C. in a water-jacketedcell culture incubator. The cells were then pelleted in a clinical centrifuge, resuspended in PBS, and washed in the same manner two additional times. The washed cells were maintained at 4° C. until used the same day of preparation.
Following exposure to chemical or physical stressors, 100 μl of the RBC suspension was added to 500 μl of PBS, pH 7.4, containing 0.3% hydrogen peroxide, in a scintillation vial. To activate the sample, 100 μl of 0.1N NaOH were added to the vial in place in an ATP photometer (Integrating ATP Photometer Model 3000, Science Applications, San Diego, California 92121) The photometer was set to a dark count of 1 count/30 second at a sensitivity of 600 at room temperature (approximately 23° C.). All counts followed a 5 second delay period to allow for stabilization of the photomultiplier. The counts are reported as counts/30 sec.
All essays were run at room temperature. The post-collection age of those cells was 11-18 days and the cells were used the day of labeling. […] Pyruvate (1.43 mM), an autoxidizable substrate, doubled the CL of labeled cells.

[2] = system: pig RBCs; assay: Thermal fragility / hemolysis of RBCs (410 nm absorbance of supernatant); assay type: cell-based; details: for thermal hemolysis, 410 nm optical absorbance, Hot air / thermal hemolysis, 410 nm optical absorbance, Microwave exposed / 410 nm optical absorbance of 1:2 diluted supernatant, Hot air / 410 nm optical absorbance of 1:2 diluted supernatant, Microwave exposed: 43° C. (10 min); for thermal hemolysis, 410 nm optical absorbance, Hot air / thermal hemolysis, 410 nm optical absorbance, Microwave exposed: Con A-Lu-BSA labeled RBCs 11-14 days post collection; for effect on thermal hemolysis, in words: 48° C. for 30 min; for 410 nm optical absorbance of 1:2 diluted supernatant, 4° C. / 410 nm optical absorbance of 1:2 diluted supernatant, Hot air / 410 nm optical absorbance of 1:2 diluted supernatant, Microwave exposed: RBCs 6 days post collection
Experimental: Blood was collected from Landrace-Duroc swine from a closed herd. Pigs from this herd had previously expressed episodes of porcine stress syndrome (malignant hyperthermia) following halothane anesthesia. The blood was collected into acidic citrated dextrose solution in standard blood bags. The blood was diluted 1:10 in phosphate (0.1M) buffered saline (PBS), pH 7.4, in 10 ml aliquots, centrifuged in a clinical centrifuge, and the erythrocytes were resuspended in fresh PBS. The cells were stored at 4° C. until used in the various assays. The post-collection chronological age of the RBCs used for a particular assay is noted in the results for each assay. The cells were counted in an automated cell counter (Coulter ZBI, Coulter Electronics, Inc., Hialeah, Fla. 33010).
Red blood cells were heated in 1 or 1.5 ml aliquots of PBS pH 7.4 with or without additional reagents in cellulose nitrate or polypropylene centrifuge tubes. Two concentrations of cells were used as indicated in the results. Heating was accomplished by three methods: microwave radiation, hot air, or water bath heating. The microwave device was a circularly polarized waveguide powered by a 1-kw S-band (microwave) amplifier (Model 10704,MCL, Inc., La Grange, Ill.). The heating of the sample at a specific absorption rate (SAR) of 91±4 W/kg (continuous wave (CW), 2450MHz) was offset by an air-cooling system that maintained a constant temperature. This system has been previously described in greater detail in Kiel, J. L. and D. N. Erwin, "Microwave and thermal interactions with oxidative hemolysis", 16 Physiol. Chem. Phys. Med. NMR, 317-323 (1984), which reference is hereby incorporated in its entirety by this specific reference thereto. […] The temperature was held within ±0.2° C. by this system. In the absence of microwave radiation, the temperature was held constant by hot air alone. The microwave/hot air system was brought to 37° C. for 15 min. prior to raising the temperature to 43° C. by microwaves or hot hot air. The water bath heating held the temperature within ±0.5° C. Heating times were 10, 15, or 30 min. The temperatures examined were 37°, 43°, 45°, or 48°.
Hemoglobin released into the supernatants of the heated cells were determined by the method described in the above-incorporated reference of Kiel and Erwin (1984). In brief, the supernatants were collected following centrifugation in a clinical centrifuge, diluted 1:2 in PBS, pH 7.4, and the optical absorbances at 410 nm were determined in a dual beam spectrophotometer. Pyruvate, lactate, inosine, hydrogen peroxide, mimosine, and/or 3-amino-L-tyrosine were added to the samples as indicated in Tables 1-3 and 9-12. All reagents were diluted in PBS and the final volumes of the samples were constant.

[3] = system: peroxidase; assay: 3-aminotyrosine oxidation by peroxidase; assay type: biochemical
[4] = system: Con A-Lu-BSA labeled pig RBCs; assay: Chemiluminescence of Con A-Lu-BSA labeled pig RBCs with exogenous hydrogen peroxide; assay type: cell-based; details: Sus scrofa, Erythrocyte, 1.43 mM, no cells; read-out: Percent control
[5] = system: porcine RBCs; assay: Nonspecific binding of Lu-BSA to porcine RBCs (base-activated chemiluminescence); assay type: cell-based, pig
Experimental: Blood was collected from Landrace-Duroc swine from a closed herd. Pigs from this herd had previously expressed episodes of porcine stress syndrome (malignant hyperthermia) following halothane anesthesia. The blood was collected into acidic citrated dextrose solution in standard blood bags. The blood was diluted 1:10 in phosphate (0.1M) buffered saline (PBS), pH 7.4, in 10 ml aliquots, centrifuged in a clinical centrifuge, and the erythrocytes were resuspended in fresh PBS. The cells were stored at 4° C. until used in the various assays. The post-collection chronological age of the RBCs used for a particular assay is noted in the results for each assay. The cells were counted in an automated cell counter (Coulter ZBI, Coulter Electronics, Inc., Hialeah, Fla. 33010). Nonspecific binding of Lu-BSA to porcine RBCs was measured following treatment with hydrogen peroxide, pyruvate, and/or 3-amino-L-tyrosine at 4°, 37°, or 45° C. The exposure times for those agents were 15 min, 30 min, or 72 hours. The reagents were removed by centrifugation. Three binding protocols were followed: (1) 0.25 ml of 1:20 RBCs (19 days post collection) were incubated with 0.25 ml of 1 mg/ml Lu-BSA in PBS, pH 6.9, for 30 min at 37° C. and washed (Table 1); (2) 0.05 ml of packed RBCs (less than 24 hours post collection) were resuspended in 0.2 ml of the Lu-BSA solution and incubated overnight at 4° C. […] The cells in all three protocols were washed once in PBS, pH 7.4, and resuspended in PBS to final dilutions of 1:20 for (1) and 1:30 for (2) and (3). Following this preparation, 100 μl of each cell suspension were added to 500 μl of PBS, pH 7.4, in a scintillation vial. The vial was placed in the photometer and the solution was activated by the addition of 100 μl 0.1N NaOH. The settings for the photometer were as previously described for the Con A-Lu-BSA.

[6] = in vivo; cited from earlier work
[7] = system: 20-methylcholanthrene induced tumors; details: cited from earlier work
[8] = 1.43 mM, labeled RBCs 11-18 days post collection, room temperature
[9] = Sus scrofa, Erythrocyte, 1.43 mM, read-out: Percent control

OC[C@H]1O[C@@H](n2cnc3c(O)ncnc32)[C@H](O)[C@@H]1O [Inosine]
effect on CL of labeled cells, in words ([1]; 1.43 mM): small but significant increase | CL (30 sec) [1, 8]: 34,972 ± 2,732 counts/30 sec | activity at 1430 µM [1, 9]: 115% | benefit of storing RBCs in reagent in respect to thermal fragility, in words ([2]; 10 mM): no significant benefit | thermal hemolysis, 410 nm optical absorbance, Hot air ([2]; 10 mM): 0.597 ± 0.080 | thermal hemolysis, 410 nm optical absorbance, Microwave exposed ([2]; 10 mM): 0.578 ± 0.045

NC(Cn1ccc(=O)c(O)c1)C(=O)O [L--mimosine, L-mimosine]
mode of inhibition, in words [3]: uncompetitive inhibitor | CL (30 sec) ([1]; 630 μM): 8,555 ± 1,044 counts/30 sec | level of CL below natural RBC CL ([1]; 630 μM): 36% | effect of prewashing labeled cells on CL, in words ([1]; 5 mM, 30 min at room temperature): no significant effect | activity at 630 µM ([1]; Sus scrofa, Erythrocyte, 630 μM, read-out: Percent control): 28% | activity at 5000 µM ([1]; Sus scrofa, Erythrocyte, pretreatment 5 mM, 30 min, washed before activation, read-out: Percent control): 94% | inhibition at 630 µM ([1]; Sus scrofa, 630 μM, read-out: inhibition of CL): 72% | CL (30 sec) ([1]; pretreatment 5 mM, 30 min, washed before activation): 28,517 ± 2,591 counts/30 sec | Percent difference from controls (corrected), 4° C. ([2]; 340 μM, 48° C. 30 min): 95.1% | Percent difference from controls (corrected), 48° C. ([2]; 340 μM, 48° C. 30 min): 21.5% | 410 nm absorbance, Actual ([2]; 340 μM, 48° C. 30 min, RBCs 20 days post collection, 1.4×10^9 per ml): 0.965 ± 0.026 | 410 nm absorbance, Corrected ([2]; 340 μM, 48° C. 30 min, corrected for RBC dilution): 0.724 | effect on thermal hemolysis, in words ([2]; 340 μM, listed as Mimosine): had no effect | effect on thermal hemolysis, in words ([2]; 340 μM, listed as mimosine): failed to protect

CC(=O)C(=O)O [Pyruvate]
CL (30 sec) ([1]; 1.43 mM, no cells): 420 counts/30 sec | CL (30 sec) [1, 8]: 60,732 ± 3,258 counts/30 sec | activity at 1430 µM [1, 9]: 200% | activity at 1430 µM [4]: 1.4% | 410 nm optical absorbance of 1:2 diluted supernatant, 4° C. ([2]; 10 mM): 0.363 | thermal hemolysis, 410 nm optical absorbance, Hot air ([2]; 10 mM): 0.646 ± 0.02 | thermal hemolysis, 410 nm optical absorbance, Microwave exposed ([2]; 10 mM): 0.646 ± 0.07 | 410 nm optical absorbance of 1:2 diluted supernatant, Hot air ([2]; 10 mM): 0.427 ± 0.015 | 410 nm optical absorbance of 1:2 diluted supernatant, Microwave exposed ([2]; 10 mM): 0.374 ± 0.055 | spontaneous hemolysis reading ([2]; pyruvate 1.33 mM, 37° C., RBCs 72 hours post collection): 0.362±0.016 | CL (30 s) ([5]; 1.33 mM, 45° C., 30 min): 1203 ± 266 counts/30 s | CL (counts/30 s) ([5]; 1.33 mM, 30 min at 37° C., RBCs 72 hours post collection): 2348 ± 646 counts/30 s | activation at 1330 µM ([5]; Sus scrofa, 1.33 mM during exposure to 45° C., read-out: increase in Lu-BSA binding over the 45° C. exposure alone): 101% | activation at 1330 µM ([5]; Sus scrofa, 0.5 h, 1.33 mM, 45° C., 30 min, vs 4° C. control, read-out: Percent difference from control): 216% | activation at 1330 µM ([5]; Sus scrofa, 0.5 h, 1.33 mM, 30 min at 37° C., read-out: Percent difference from control): 166% | fold induction at 1330 µM ([5]; Sus scrofa, 0.5 h, 1.33 mM, 30 min at 37° C., read-out: increase of Lu-BSA binding): 2.7

myeloperoxidase
biological half-life [6]: about 24 hours | effect on tumor growth, in words ([7]; agent alone): Neither myeloperoxidase nor thio-TEPA alone were effective | effect on tumor growth, in words ([7]; myeloperoxidase injected in combination with thio-TEPA): significant reduction in tumor growth

OO [Hydrogen peroxide, reference compound]
CL (30 s) ([5]; Lu-BSA binding, pretreatment 44 mM, 37° C., 15 min, RBCs 19 days post collection): 558 ± 157 counts/30 s | activation at 44000 µM ([5]; Sus scrofa, 0.25 h, 44 mM, 15 min, 37° C. (hot air), 1.4×10^9 RBCs/ml, read-out: increase in bound Lu-BSA compared to cells maintained in PBS): 721% | activation at 11700 µM ([5]; Sus scrofa, 0.5 h, hydrogen peroxide 11.7 mM, 37° C., 30 min, vs 4° C. control, read-out: Percent difference from control): 254% | CL (30 s) ([5]; hydrogen peroxide 11.7 mM, 37° C., 30 min, RBCs less than 24 hours post collection): 1346 ± 386 counts/30 s

CC(O)C(=O)O (centres unmarked) [Lactate]
effect on CL of labeled cells, in words ([1]; 1.43 mM): insignificant increases | CL (30 sec) [1, 8]: 30,930 ± 3,399 counts/30 sec | activity at 1430 µM [1, 9]: 102% | change in hemolysis, in words ([2]; 10 mM, 43° C., RBCs 6 days post-collection): insignificant increases | 410 nm optical absorbance of 1:2 diluted supernatant, 4° C. ([2]; 10 mM): 0.362 | thermal hemolysis, 410 nm optical absorbance, Hot air ([2]; 10 mM): 0.667 ± 0.04 | thermal hemolysis, 410 nm optical absorbance, Microwave exposed ([2]; 10 mM): 0.643 ± 0.02 | 410 nm optical absorbance of 1:2 diluted supernatant, Hot air ([2]; 10 mM): 0.440 ± 0.078 | 410 nm optical absorbance of 1:2 diluted supernatant, Microwave exposed ([2]; 10 mM): 0.424 ± 0.014

S=P(N1CC1)(N1CC1)N1CC1 [thio-TEPA, reference compound]
effect on tumor growth, in words ([7]; agent alone): Neither myeloperoxidase nor thio-TEPA alone were effective
